US20200017495A1, “NOVEL HETEROCYCLIC COMPOUNDS AND THEIR USE IN PREVENTING OR TREATING BACTERIAL INFECTIONS” (priority 2017, published 2020)

Assays:
[1] = system: Klebsiella pneumoniae (KPN) isolates; assay: MIC of compounds alone and combined with antibacterials, broth microdilution (CLSI); type: cell-based
Summary of the method: (§1)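 Antibacterial MICs in combination were determined at every compound concentration tested, alongside compound MICs alone. Bacteria grew in cation-adjusted Mueller-Hinton broth starting from 5.10^5 CFU/mL, incubated at 35° C for 16-20 h, and endpoints were the lowest concentrations with no visible growth.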

[2] = system: Citrobacter freundii (CFR) isolates; assay: as above; type: cell-based
Summary of the method: as §1

C=CC1=C(C(=O)O)N2C(=O)[C@@H](NC(=O)/C(=N\OCC(=O)O)c3csc(N)n3)[C@H]2SC1 [FIX, Cefixime]
MIC ([1]; strain KPN UFR166, genotype TEM-1, TEM-1, CTX-M-15, OXA-181, OXA-9, NDM-1, antibiotic alone): >128 µg/mL
MIC ATB in combination ([1]; strain KPN UFR166, with AF2 @ 8 μg/mL): >128 µg/mL
MIC ATB in combination ([1]; strain KPN UFR166, with AF3 @ 8 μg/mL): >128 µg/mL
MIC ATB in combination ([1]; strain KPN UFR166, with CLA @ 4 μg/mL): >128 µg/mL
MIC ([1]; strain KPN UFR167, genotype TEM-1, SHV-12, CTX-M-15, OXA-9, NDM-1, antibiotic alone): >128 µg/mL
MIC ATB in combination ([1]; strain KPN UFR167, with AF2 @ 8 μg/mL): >128 µg/mL
MIC ATB in combination ([1]; strain KPN UFR167, with AF3 @ 8 μg/mL): >128 µg/mL
MIC ATB in combination ([1]; strain KPN UFR167, with CLA @ 4 μg/mL): >128 µg/mL
MIC ([1]; strain KPN UFR168, genotype SHV-2, CTX-M-15, OXA-1, OXA-181, NDM-1, ArmA, antibiotic alone): >128 µg/mL
MIC ATB in combination ([1]; strain KPN UFR168, with AF2 @ 8 μg/mL): >128 µg/mL
MIC ATB in combination ([1]; strain KPN UFR168, with AF3 @ 8 μg/mL): >128 µg/mL
MIC ATB in combination ([1]; strain KPN UFR168, with CLA @ 4 μg/mL): >128 µg/mL
MIC ([1]; strain KPN UFR169, genotype TEM-1, SHV-28, CTX-M-15, CMY-4, OXA-1, NDM-1, antibiotic alone): >128 µg/mL
MIC ATB in combination ([1]; strain KPN UFR169, with AF2 @ 8 μg/mL): >128 µg/mL
MIC ATB in combination ([1]; strain KPN UFR169, with AF3 @ 8 μg/mL): >128 µg/mL
MIC ATB in combination ([1]; strain KPN UFR169, with CLA @ 4 μg/mL): >128 µg/mL
MIC ([1]; strain KPN UFR170, genotype TEM-1, SHV-28, CTX-M-15, CMY-6, OXA-1, OXA-9, NDM-1, antibiotic alone): >128 µg/mL
MIC ATB in combination ([1]; strain KPN UFR170, with AF2 @ 8 μg/mL): <0.25 µg/mL
MIC ATB in combination ([1]; strain KPN UFR170, with AF3 @ 8 μg/mL): >128 µg/mL
MIC ATB in combination ([1]; strain KPN UFR170, with CLA @ 4 μg/mL): >128 µg/mL
MIC ([1]; strain KPN UFR171, genotype TEM-1, SHV-28, CTX-M-15, OXA-1, OXA-10, NDM-1, RmtA, antibiotic alone): >128 µg/mL
MIC ATB in combination ([1]; strain KPN UFR171, with AF2 @ 8 μg/mL): <0.25 µg/mL
MIC ATB in combination ([1]; strain KPN UFR171, with AF3 @ 8 μg/mL): <0.25 µg/mL
MIC ATB in combination ([1]; strain KPN UFR171, with CLA @ 4 μg/mL): >128 µg/mL
MIC ([1]; strain KPN UFR172, genotype SHV-38, CMY-16, OXA-10, NDM-1, antibiotic alone): >128 µg/mL
MIC ATB in combination ([1]; strain KPN UFR172, with AF2 @ 8 μg/mL): <0.25 µg/mL
MIC ATB in combination ([1]; strain KPN UFR172, with AF3 @ 8 μg/mL): <0.25 µg/mL
MIC ATB in combination ([1]; strain KPN UFR172, with CLA @ 4 μg/mL): >128 µg/mL
MIC ([1]; strain KPN UFR215, genotype SHV-27, CTX-M-15): >128 µg/mL
MIC ([1]; strain KPN UFR216, genotype SHV-28, CTX-M-15): >128 µg/mL
MIC ([1]; strain KPN UFR217, genotype TEM-1, SHV-1, CTX-M-15): >128 µg/mL
MIC ([1]; strain KPN UFR219, genotype SHV-12, CTX-M-15): >128 µg/mL
MIC ([1]; strain KPN UFR220, genotype TEM-1, SHV-12, DHA-1): >128 µg/mL
MIC ([1]; strain KPN UFR221, genotype TEM-1, SHV-11, CTX-M-14, DHA-1): 64 µg/mL
MIC ([1]; strain KPN UFR222, genotype DHA-2): >128 µg/mL
MIC ([1]; strain KPN UFR227O, genotype TEM-x, SHV-x, CTX-M-x): >128 µg/mL
MIC ([1]; strain KPN UFR229O, genotype SHV-12, VIM-1, antibiotic alone): >128 µg/mL
MIC ATB in combination ([1]; strain KPN UFR229O, with AF2 @ 8 μg/mL): >128 µg/mL
MIC ATB in combination ([1]; strain KPN UFR229O, with AF3 @ 8 μg/mL): >128 µg/mL
MIC ATB in combination ([1]; strain KPN UFR229O, with CLA @ 4 μg/mL): >128 µg/mL
MIC ATB in combination ([2]; CFR UFR10, AF2 @ 8 μg/mL): <0.25 µg/mL
MIC ATB in combination ([2]; CFR UFR10, AF3 @ 8 μg/mL): <=0.25 μg/mL
MIC ATB in combination ([2]; CFR UFR10, CLA @ 4 μg/mL): 32 µg/mL
MIC ATB in combination ([2]; CFR UFR11, AF2 @ 8 μg/mL): 16 µg/mL
MIC ATB in combination ([2]; CFR UFR11, AF3 @ 8 μg/mL): 32 µg/mL
MIC ATB in combination ([2]; CFR UFR11, CLA @ 4 μg/mL): 32 µg/mL
MIC ATB in combination ([2]; CFR UFR37, AF2 @ 8 μg/mL): <=0.25 μg/mL
MIC ATB in combination ([2]; CFR UFR37, AF3 @ 8 μg/mL): <=0.25 μg/mL
MIC ATB in combination ([2]; CFR UFR37, CLA @ 4 μg/mL): >128 µg/mL
MIC ATB in combination ([2]; CFR UFR83, AF2 @ 8 μg/mL): >128 µg/mL
MIC ATB in combination ([2]; CFR UFR83, AF3 @ 8 μg/mL): >128 µg/mL
MIC ATB in combination ([2]; CFR UFR83, CLA @ 4 μg/mL): >128 µg/mL
MIC ATB in combination ([2]; CFR UFR146, AF2 @ 8 μg/mL): 2 µg/mL
MIC ATB in combination ([2]; CFR UFR146, AF3 @ 8 μg/mL): 1 µg/mL
MIC ATB in combination ([2]; CFR UFR146, CLA @ 4 μg/mL): 64 µg/mL
MIC ATB in combination ([2]; CFR UFR248, AF2 @ 8 μg/mL): <0.25 µg/mL
MIC ATB in combination ([2]; CFR UFR248, AF3 @ 8 μg/mL): <=0.25 μg/mL
MIC ATB in combination ([2]; CFR UFR248, CLA @ 4 μg/mL): 4 µg/mL
MIC ATB in combination ([2]; CFR UFR249, AF2 @ 8 μg/mL): <=0.25 μg/mL
MIC ATB in combination ([2]; CFR UFR249, AF3 @ 8 μg/mL): <=0.25 μg/mL
MIC ATB in combination ([2]; CFR UFR249, CLA @ 4 μg/mL): 2 µg/mL
MIC ATB in combination ([2]; CFR UFR250, AF2 @ 8 μg/mL): <0.25 µg/mL
MIC ATB in combination ([2]; CFR UFR250, AF3 @ 8 μg/mL): <0.25 µg/mL
MIC ATB in combination ([2]; CFR UFR250, CLA @ 4 μg/mL): 2 µg/mL
MIC ([2]; strain CFR UFR10, genotype OXA-48): >128 µg/mL
MIC ([2]; strain CFR UFR11, genotype TEM-1, OXA-1, OXA-48): 32 µg/mL
MIC ([2]; strain CFR UFR37, genotype TEM-1, CTX-M-15, NDM-1): >128 µg/mL
MIC ([2]; strain CFR UFR83, genotype TEM-3, AmpC): >128 µg/mL
MIC ([2]; strain CFR UFR146, genotype TEM-1, KPC-2): 64 µg/mL
MIC ([2]; strain CFR UFR147, genotype TEM-1, CTX-M-15, OXA-1, OXA-181, OXA-10, OXA-9, NDM-1, ArmA, dfrA12, aadA2, antibiotic alone): >128 µg/mL
MIC ATB in combination ([2]; strain CFR UFR147, with AF2 @ 8 μg/mL): <0.25 µg/mL
MIC ATB in combination ([2]; strain CFR UFR147, with AF3 @ 8 μg/mL): <0.25 µg/mL
MIC ATB in combination ([2]; strain CFR UFR147, with CLA @ 4 μg/mL): >128 µg/mL
MIC ([2]; strain CFR UFR148, genotype TEM-1, TEM-2, CTX-M-15, NDM-1, antibiotic alone): >128 µg/mL
MIC ATB in combination ([2]; strain CFR UFR148, with AF2 @ 8 μg/mL): <0.25 µg/mL
MIC ATB in combination ([2]; strain CFR UFR148, with AF3 @ 8 μg/mL): <0.25 µg/mL
MIC ATB in combination ([2]; strain CFR UFR148, with CLA @ 4 μg/mL): >128 µg/mL
MIC ([2]; strain CFR UFR248, genotype CTX-M-15): >128 µg/mL
MIC ([2]; strain CFR UFR249, genotype TEM-1, CTX-M-15): >128 µg/mL
MIC ([2]; strain CFR UFR250, compound alone): >128 µg/mL
MIC ([2]; strain CFR UFR250, genotype TEM-1, SHV-28, CTX-M-15): >128 µg/mL
MIC ([2]; strain CFR UFR251, genotype SHV-11, VIM-1, antibiotic alone): >128 µg/mL
MIC ATB in combination ([2]; strain CFR UFR251, with AF2 @ 8 μg/mL): <0.25 µg/mL
MIC ATB in combination ([2]; strain CFR UFR251, with AF3 @ 8 μg/mL): <0.25 µg/mL
MIC ATB in combination ([2]; strain CFR UFR251, with CLA @ 4 μg/mL): >128 µg/mL
MIC ([2]; strain CFR UFR252, genotype VIM-2, antibiotic alone): >128 µg/mL
MIC ATB in combination ([2]; strain CFR UFR252, with AF2 @ 8 μg/mL): >128 µg/mL
MIC ATB in combination ([2]; strain CFR UFR252, with AF3 @ 8 μg/mL): >128 µg/mL
MIC ATB in combination ([2]; strain CFR UFR252, with CLA @ 4 μg/mL): >128 µg/mL
MIC ([2]; strain CFR UFR253, genotype TEM-1, SHV-12, OXA-48): >128 µg/mL
MIC ATB in combination ([2]; strain CFR UFR253, with AF2 @ 8 μg/mL): 1 µg/mL
MIC ATB in combination ([2]; strain CFR UFR253, with AF3 @ 8 μg/mL): 8 µg/mL
MIC ATB in combination ([2]; strain CFR UFR253, with CLA @ 4 μg/mL): >128 µg/mL
MIC ([2]; strain CFR UFR254, genotype VEB-1b, OXA-48, qnrA): 32 µg/mL
MIC ATB in combination ([2]; strain CFR UFR254, with AF2 @ 8 μg/mL): <=0.25 μg/mL
MIC ATB in combination ([2]; strain CFR UFR254, with AF3 @ 8 μg/mL): 0.5 µg/mL
MIC ATB in combination ([2]; strain CFR UFR254, with CLA @ 4 μg/mL): 16 µg/mL
